Values joined by “and” are separate entries in the source; they are usually repeats but may differ in a detail not shown here. Equal values may be shown once. Read-outs that look alike come from different tables or passages of the source.
How the values were obtained:
[1] = target: farnesyl protein transferase (H-ras) (Homo sapiens, UniProt P49354+P49356); assay: FPT IC50 (H-ras), in vitro enzyme assay; assay type: biochemical
Procedure: (§1) FPT IC50 (inhibition of farnesyl protein transferase, in vitro enzyme assay), GGPT IC50 (inhibition of geranylgeranyl protein transferase, in vitro enzyme assay) and COS Cell IC50 (Cell-Based Assay) were determined following the assay procedures described in WO 95/10516, published Apr. 20, 1995. Cell Mat Assay, and anti-tumor activity (in vivo anti-tumor studies) could be determined by the assay procedures described in WO 95/10516. The disclosure of WO 95/10516 is incorporated herein by reference thereto.

[2] = test system: COS Cell; assay: COS Cell IC50 (Cell-Based Assay)
Procedure: as §1

[3] = target: farnesyl protein transferase (K-ras) (Homo sapiens, UniProt P49354+P49356); assay: FPT IC50 (K-ras), in vitro enzyme assay; assay type: biochemical
Procedure: as §1

[4] = test system: Human tumor cells; assay: Soft Agar Assay (anchorage-independent growth); assay type: cell-based; details: Homo sapiens, Table 4; colonies after 10-16 days at 37° C.
Procedure: Soft Agar Assay: Anchorage-independent growth is a characteristic of tumorigenic cell lines. Human tumor cells are suspended in growth medium containing 0.3% agarose and an indicated concentration of a farnesyl transferase inhibitor. The solution is overlayed onto growth medium solidified with 0.6% agarose containing the same concentration of farnesyl transferase inhibitor as the top layer. After the top layer is solidified, plates are incubated for 10-16 days at 37° C. under 5% CO2 to allow colony outgrowth. […] Colonies can be counted and the IC50 's can be determined.

[5] = target: farnesyl protein transferase; assay: FPT IC50 (inhibition of farnesyl protein transferase, in vitro enzyme assay); assay type: biochemical; details: Table 2
Text: In Table 2 "Ex. No." stands for "Example Number". In Table 2, FPT IC50 results are less indicated otherwise.

[6] = target: T1, geranylgeranyl protein transferase (Rattus norvegicus, UniProt P53610+Q04631); assay: GGPT IC50 (inhibition of geranylgeranyl protein transferase, in vitro enzyme assay); assay type: biochemical
T1 construct: from tissue; host or cells: rat brain (own knowledge of the cited WO 95/10516)
Procedure: as §1

SMILES | IC50 [1] | IC50 [3] | IC50 [4] | IC50 [5] | IC50 ([3]; Table 2) | IC50 [6] | IC50 ([2]; Table 4) | IC50 ([2]; Table 2)
CC(=O)OC[C@H]1O[C@@H](NC(=S)N2CCC(CC(=O)N3CCC([C@H]4c5ncc(Br)cc5CCc5cc(Cl)cc(Br)c54)CC3)CC2)[C@H](OC(C)=O)[C@@H](OC(C)=O)[C@@H]1OC(C)=O [Compound 4.0-B] | 12 nM | 29 nM | – | – | – | – | 1000 nM | –
N#CN1CCC(CC(=O)N2CCC([C@H]3c4ncc(Br)cc4CCc4cc(Cl)cc(Br)c43)CC2)CC1 [Compound 98.0-B] | 2.3 nM and 2.4 nM | 17 nM | 100 nM | – | – | – | 12 nM | –
O=C(CC1CCN(C(=O)N2CCOCC2)CC1)N1CCC([C@H]2c3ncc(Br)cc3CCc3cc(Cl)cc(Br)c32)CC1 [Compound 100.0-B] | 5.5 nM | – | 380 nM | – | – | – | < 10 nM | –

Second part, led by results:

IC50 [1] | IC50 [3] | IC50 [4] | IC50 [5] | IC50 ([3]; Table 2) | IC50 [6] | SMILES | IC50 ([2]; Table 4) | IC50 ([2]; Table 2)
290 nM | – | – | – | – | – | N=C(Oc1ccccc1)N1CCC(CC(=O)N2CCN(C3c4ccc(Cl)cc4CCc4cc(Br)cnc43)CC2)CC1 (centres unmarked) [Example 3, PHENYL 4-[2-[4-(3-BROMO-8-CHLORO-6,11-DIHYDRO-5 H-BENZO[5,6]CYCLOHEPTA1,2-b]PYRIDIN-11-YL)-1-PIPERAZINYL]-2-OXOETHYL-1-PIPERIDINECARBOXIMIDATE] | – | –
– | 46 nM | 200 nM | 8.8 nM | – | – | N=C(Oc1ccccc1)N1CCC(CC(=O)N2CCC([C@H]3c4ncc(Br)cc4CCc4cc(Cl)cc(Br)c43)CC2)CC1 [Example 25] | 24 nM | 24 nM
– | – | – | 11 nM | 782 nM | 7500 nM | N=C(NCc1cccnc1)N1CCC(CC(=O)N2CCC(C3c4ccc(Cl)c(Br)c4CCc4cc(Br)cnc43)CC2)CC1 (centres unmarked) [Example 29] | – | > 1000 nM

From patent US5861395A, “Compounds useful for inhibition of farnesyl proteins transferase” (Schering Corporation, priority 1997, dated 1999)
